{"source": "patent US7718201B2", "about": "“Method of inducing liver phase II enzymes” (Access Business Group International LLC, priority 2005, dated 2010)", "origin": "cited, not measured here", "test_system": "quinone reductase in Hepa1c1c7 cells", "settings": "reference values; broccoli dependent on variety, form, extraction conditions"}
{"compound": "C[S+]([O-])CCCCN=C=S", "note": "(stereo not shown) [sulforaphane]", "values": [{"measurement": "Phase II enzyme induction activity (reported)", "result": "10^6 U/g"}]}
